Results on 59 molecules are retold here after patent US4393225A, “AI-77 Compounds and pharmaceutically acceptable salts thereof” (Asahi Kasei Kogyo Kabushiki Kaisha, priority 1979, dated 1983).

One test concerns ulcer. Kind of test: Anti-ulcer test (restraint and water immersion ulcer in rats, i.p.). The test is classed as in vivo, Male Wistar rats. Particulars: Rattus norvegicus, ip, read-out: % Inhibition of Ulcer. In a few lines:
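Compound given intraperitoneally in saline to 24 h-fasted male Wistar rats about 150 g, followed after one hour by 6 h restraint with water immersion at 21 °C. Gastric lesions graded 0, 0.5, 1, 2 or 3 on microscopic inspection and converted to percent ulcer inhibition.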
For the molecule `COC(C(=O)NC(CC(C)C)C1Cc2cccc(O)c2C(=O)O1)C(O)C(N)CC(N)=O` (centres unmarked) [VII-8-1], the inhibition in vivo at 25 mg/kg is 89%. Same read-out and setting: next, `CC(C)CC(NC(=O)C(O)C(O)C(CC(N)=O)NC(=O)C(C)C)C1Cc2cccc(O)c2C(=O)O1` (centres unmarked) [VII-28-2]: 78%. Turning to `CCCCC(=O)NC1CC(=O)OC1C(O)C(=O)NC(CC(C)C)C1Cc2cccc(O)c2C(=O)O1` (centres unmarked) [IIIa-1-6], the inhibition in vivo at 50 mg/kg worked out at 66%.

Staying with this test, now noted: Rattus norvegicus, ip; 25 mg/kg i.p.; read-out: % Inhibition of Ulcer.
Take `CCNC(CC(N)=O)C(O)C(OC(C)=O)C(=O)NC(CC(C)C)C1Cc2cccc(O)c2C(=O)O1` (centres unmarked) [VII-11-1]: the inhibition in vivo at 25 mg/kg was found to be 72%. Same read-out and setting: next, `CCC(C)CCCCCNC(=O)CC(N)C(O)C(O)C(=O)NC(CC(C)C)C1Cc2cccc(O)c2C(=O)O1` (centres unmarked) [VII-1-31]: 83%; `CCOc1cccc2c1C(=O)OC(C(CC(C)C)NC(=O)C(O)C(O)C(CC(N)=O)NC)C2` (centres unmarked) [VII-23-1]: 89%; `CCNC(CC(N)=O)C(O)C(OC)C(=O)NC(CC(C)C)C1Cc2cccc(OC(=O)C(C)C)c2C(=O)O1` (centres unmarked) [VII-18-3]: 56%. Same read-out and setting: next, `CCCCCCCCC=CCCCCCCCCNC(=O)CC(N)C(O)C(O)C(=O)NC(CC(C)C)C1Cc2cccc(O)c2C(=O)O1` (centres unmarked) [VII-1-8]: 89%; `CC(C)CC(NC(=O)C(O)C(O)C(N)CC(=O)NC(C)C)C1Cc2cccc(O)c2C(=O)O1` (centres unmarked) [VII-1-42]: 94%; `CC(C)CC(NC(=O)C(O)C(O)C(N)CC(=O)NCc1cccc(Cl)c1)C1Cc2cccc(O)c2C(=O)O1` (centres unmarked) [VII-1-20]: 94%. Consider `CC(C)CC(NC(=O)C(O)C(O)C(N)CC(=O)NCC1CCCCCCC1)C1Cc2cccc(O)c2C(=O)O1` (centres unmarked) [VII-1-33], for which the inhibition in vivo at 25 mg/kg was 83%.

Still in this test, the particulars now being: Rattus norvegicus, ip; 50 mg/kg i.p.; read-out: % Inhibition of Ulcer.
As for `COc1ccc2ncc(C(=O)NC3CC(=O)OC3C(O)C(=O)NC(CC(C)C)C3Cc4cccc(O)c4C(=O)O3)cc2c1` (centres unmarked) [IIIa-1-30], the inhibition in vivo at 50 mg/kg stood at 56%. Still for that read-out and setting: next, `CCOc1cccc2c1C(=O)OC(C(CC(C)C)NC(=O)C(O)C1C=CC(=O)O1)C2` (centres unmarked) [IVa-4-2]: 44%; `CCOc1cccc2c1C(=O)OC(C(CC(C)C)NC(=O)C(O)C1OC(=O)CC1N)C2` (centres unmarked) [IIIa-13-2]: 94%; `CCCCCCCCC=CCCCCCCCCOc1cccc2c1C(=O)OC(C(CC(C)C)NC(=O)C(O)C1C=CC(=O)O1)C2` (centres unmarked) [IVa-4-7]: 33%.

As for `CCNC1CC(=O)OC1C(O)C(=O)NC(CC(C)C)C1Cc2cccc(OCC(C)C)c2C(=O)O1` (centres unmarked) [IIIa-22-10], the inhibition in vivo at 50 mg/kg was determined as 83%. The same measure, in the same setting: to `CC(=O)OC(C(=O)NC(CC(C)C)C1Cc2cccc(O)c2C(=O)O1)C1OC(=O)CC1NC(=O)C1CCCO1` (centres unmarked) [IIIa-2-6] belongs 44%; to `CC(=O)Oc1cccc2c1C(=O)OC(C(CC(C)C)NC(=O)C(OC(C)=O)C1OC(=O)CC1NC(=O)c1ccc(C)cc1)C2` (centres unmarked) [IIIa-3-8], 33%. The same measure, in the same setting: to `CSc1ccc(C(=O)NC2CC(=O)OC2C(O)C(=O)NC(CC(C)C)C2Cc3cccc(O)c3C(=O)O2)cc1` (centres unmarked) [IIIa-1-46] belongs 66%; to `CC(=O)Oc1cccc2c1C(=O)OC(C(CC(C)C)NC(=O)C(OC(C)=O)C1OC(=O)CC1NC(=O)c1ccc(OCCC(C)C)cc1)C2` (centres unmarked) [IIIa-3-9], 22%. On the same count and under the same terms, to `CCNC(CC(=O)O)C(O)C(O)C(=N)NC(CC(C)C)C1Cc2cccc(OC(C)=O)c2C(=O)O1` (centres unmarked) [Vb-13-1] belongs 78%; to `CCOc1cccc2c1C(=O)OC(C(CC(C)C)NC(=O)C(OC(C)=O)C1OC(=O)CC1NC(=O)CC(C)C)C2` (centres unmarked) [IIIa-6-3], 33%; to `CCOc1cccc2c1C(=O)OC(C(CC(C)C)NC(=O)C(O)C1OC(=O)CC1NC(=O)c1ccc(OC(C)=O)cc1)C2` (centres unmarked) [IIIa-5-35], 44%. `CCCCCCCCCCCCCCCCCC(=O)NC1CC(=O)OC1C(OC(C)=O)C(=O)NC(CC(C)C)C1Cc2cccc(OC(C)=O)c2C(=O)O1` (centres unmarked) [IIIa-3-4]: the inhibition in vivo at 50 mg/kg is 22%. Still for that read-out and setting: to `CCCCCCCCOc1cccc2c1C(=O)OC(C(CC(C)C)NC(=O)C(O)C1OC(=O)CC1NCCCCCCC)C2` (centres unmarked) [IIIa-22-12] belongs 72%. Still for that read-out and setting: to `CCOc1cccc2c1C(=O)OC(C(CC(C)C)NC(=O)C(O)C1OC(=O)CC1NC(=O)Cc1ccc3ccccc3c1C)C2` (centres unmarked) [IIIa-5-21] belongs 33%; to `CCOc1cccc2c1C(=O)OC(C(CC(C)C)NC(=O)C(O)C1OC(=O)CC1NC(=O)c1ccc(C(C)C)cc1)C2` (centres unmarked) [IIIa-5-67], 44%; to `CC(=O)N1CCC(COc2cccc3c2C(=O)OC(C(CC(C)C)NC(=O)C(O)C2C=CC(=O)O2)C3)CC1` (centres unmarked) [IVa-4-16], 33%. Still for that read-out and setting: next, `CCCCCOC(=O)c1ccc(C(=O)NC2CC(=O)OC2C(O)C(=O)NC(CC(C)C)C2Cc3cccc(OCC)c3C(=O)O2)cc1` (centres unmarked) [IIIa-5-50]: 33%; `CCOc1cccc2c1C(=O)OC(C(CC(C)C)NC(=O)C(OC)C1OC(=O)CC1NC(=O)C1CCCO1)C2` (centres unmarked) [IIIa-7-6]: 22%; `CC(C)=CCNC1CC(=O)OC1C(O)C(=O)NC(CC(C)C)C1Cc2cccc(O)c2C(=O)O1` (centres unmarked) [IIIa-18-70]: 94%.

Regarding `CC(C)CC(NC(=O)C(O)C(O)C=CC(=O)NCc1cccc(Cl)c1)C1Cc2cccc(O)c2C(=O)O1` (centres unmarked) [VIII-1-4], the inhibition in vivo at 50 mg/kg amounted to 44%. For the molecule `CC(C)CC(NC(=O)C(O)C1C=CC(=O)O1)C1Cc2cccc(OC(=O)CCC3CCCC3)c2C(=O)O1` (centres unmarked) [IVa-3-15], the inhibition in vivo at 50 mg/kg came to 33%. Still for that read-out and setting: to `COc1cccc2c1C(=O)OC(C(CC(C)C)NC(=O)C(O)C1C=CC(=O)O1)C2` (centres unmarked) [IVa-4-1] belongs 44%; to `CSCCNC1CC(=O)OC1C(O)C(=O)NC(CC(C)C)C1Cc2cccc(O)c2C(=O)O1` (centres unmarked) [IIIa-18-38], 94%. On the same count and under the same terms, to `CCOc1cccc2c1C(=O)OC(C(CC(C)C)NC(=O)C(O)C1OC(=O)CC1NC(=O)C(=O)CC)C2` (centres unmarked) [IIIa-5-32] belongs 44%; to `CCOc1cccc2c1C(=O)OC(C(CC(C)C)NC(=O)C(O)C1OC(=O)CC1NC(=O)CCCCCCCCCO)C2` (centres unmarked) [IIIa-5-75], 33%. On the same count and under the same terms, to `CCCC=Cc1ccc(C(=O)NC2CC(=O)OC2C(O)C(=O)NC(CC(C)C)C2Cc3cccc(OCC)c3C(=O)O2)cc1` (centres unmarked) [IIIa-5-74] belongs 44%; to `CCCC(=O)NC1CC(=O)OC1C(OC)C(=O)NC(CC(C)C)C1Cc2cccc(OCc3ccc4ccccc4c3)c2C(=O)O1` (centres unmarked) [IIIa-7-13], 33%. Consider `CC(C)CCOc1ccc(C(=O)Oc2cccc3c2C(=O)OC(C(CC(C)C)NC(=O)C(O)C2OC(=O)CC2N)C3)cc1` (centres unmarked) [IIIa-12-8], for which the inhibition in vivo at 50 mg/kg came to 72%. `CCOc1cccc2c1C(=O)OC(C(CC(C)C)NC(=O)C(OC)C1OC(=O)CC1NC(=O)CC(C)OC)C2` (centres unmarked) [IIIa-7-7]: the inhibition in vivo at 50 mg/kg is 33%. On the same count and under the same terms, to `CNC(CC(=O)O)C(O)C(OC)C(=N)NC(CC(C)C)C1Cc2cccc(OC(C)=O)c2C(=O)O1` (centres unmarked) [Vb-27-1] belongs 66%; to `COc1cccc2c1C(=O)OC(C(CC(C)C)NC(=O)C(O)C1OC(=O)CC1NC(C)=O)C2` (centres unmarked) [IIIa-5-5], 44%; to `CCCCCCCCC=CCCCCCCCC(=O)NC1CC(=O)OC1C(OC(C)=O)C(=O)NC(CC(C)C)C1Cc2cccc(OC(C)=O)c2C(=O)O1` (centres unmarked) [IIIa-3-5], 22%. Still for that read-out and setting: to `CCCCCc1ccc(C(=O)NC2CC(=O)OC2C(O)C(=O)NC(CC(C)C)C2Cc3cccc(O)c3C(=O)O2)cc1` (centres unmarked) [IIIa-1-76] belongs 66%; to `CC(=O)OC1CCC(C(=O)NC2CC(=O)OC2C(O)C(=O)NC(CC(C)C)C2Cc3cccc(O)c3C(=O)O2)CC1` (centres unmarked) [IIIa-1-74], 66%. The same measure, in the same setting: next, `CCOc1cccc2c1C(=O)OC(C(CC(C)C)NC(=O)C(O)C1OC(=O)CC1NC(=O)c1cccn1C)C2` (centres unmarked) [IIIa-5-29]: 33%.

For `CCNC(CC(=O)O)C(O)C(OC(=O)CC)C(=N)NC(CC(C)C)C1Cc2cccc(OC(=O)C(C)C)c2C(=O)O1` (centres unmarked) [Vb-12-1], the inhibition in vivo at 50 mg/kg was 56%.

As for `CCOc1cccc2c1C(=O)OC(C(CC(C)C)NC(=O)C(O)C1OC(=O)CC1NC(=O)CC(C)OC(C)=O)C2` (centres unmarked) [IIIa-5-47], the inhibition in vivo at 50 mg/kg came out at 33%. Same read-out and setting: to `CCOc1cccc2c1C(=O)OC(C(CC(C)C)NC(=O)C(O)C1OC(=O)CC1NC)C2` (centres unmarked) [IIIa-31-2] belongs 94%; to `CCNC1CC(=O)OC1C(OC)C(=O)NC(CC(C)C)C1Cc2cccc(OCC)c2C(=O)O1` (centres unmarked) [IIIa-24-1], 56%. Take `CC(=O)Oc1cccc2c1C(=O)OC(C(CC(C)C)NC(=O)C(O)C1OC(=O)CC1NC(=O)c1ccc(C)cc1)C2` (centres unmarked) [IIIa-4-7]: the inhibition in vivo at 50 mg/kg came to 33%. The same measure, in the same setting: to `COC(C)CC(=O)Oc1cccc2c1C(=O)OC(C(CC(C)C)NC(=O)C(O)C1C=CC(=O)O1)C2` (centres unmarked) [IVa-3-17] belongs 33%; to `CC(=O)Oc1cccc2c1C(=O)OC(C(CC(C)C)NC(=O)C(O)C1OC(=O)CC1NCC(C)C)C2` (centres unmarked) [IIIa-21-2], 72%. As to `COC(C(=O)NC(CC(C)C)C1Cc2cccc(O)c2C(=O)O1)C1OC(=O)CC1NCC(Cl)(Cl)Cl` (centres unmarked) [IIIa-25-10], the inhibition in vivo at 50 mg/kg stood at 66%. Still for that read-out and setting: next, `CCCCCc1ccc(C(=O)NC2CC(=O)OC2C(O)C(=O)NC(CC(C)C)C2Cc3cccc(OCC)c3C(=O)O2)cc1` (centres unmarked) [IIIa-5-73]: 44%; `CCCC(=O)Oc1cccc2c1C(=O)OC(C(CC(C)C)NC(=O)C(OCC)C1OC(=O)CC1N)C2` (centres unmarked) [IIIa-17-3]: 56%; `CC(C)CC(NC(=O)C(O)C1OC(=O)CC1NC(=O)C(Cl)(Cl)Cl)C1Cc2cccc(OC(=O)C(Cl)(Cl)Cl)c2C(=O)O1` (centres unmarked) [IIIa-4-9]: 33%. The same measure, in the same setting: next, `CNC1CC(=O)OC1C(OC(=O)C(Cl)(Cl)Cl)C(=O)NC(CC(C)C)C1Cc2cccc(O)c2C(=O)O1` (centres unmarked) [IIIa-28-3]: 66%.
